According to patent US11266668B2, “Dietary supplement for glycemia control and diabetes prevention” (WORLD PHARMACEUTICAL TECHNOLOGY, LLC., priority 2018, dated 2022):
Marks after values point to notes of the source that are not given here.

Key:
[1] = clinical phase I dose-escalation trial; cited from earlier work
[2] = system: Sprague-Dawley (SD) rats; assay: sucrose loading test (postprandial blood glucose after sucrose gavage); type: in vivo, rat; details: male SD rats, sucrose 2.0 g/kg gavage, 5 mg/kg
Procedure: The inhibitory effect of Example Formula 1 and Example Formula 2 (see Table 1 and Table 2) on postprandial hyperglycemia after carbohydrate loading in Sprague-Dawley (SD) rats was assessed. All animal studies were performed according to the Act on Welfare and Management of Animals law—Act No. 105 of Oct. 1, 1973. Six week-old male SD rats were utilized and fed a solid diet for one week. Rats were housed five per cage in a room with a 12:12 hour light:dark cycle and an ambient temperature of 22-25° C. After 4 groups (n=5) were fasted for one day, 2.0 g/kg of sucrose were gavaged concurrently with Example Formula 1 (200 and 400 mg/kg) (e.g., provided at 200 or 400 mg total weight of Example Formula 1 per 1 Kg of the testing subject or patient) or 5 mg/kg Acarbose. The blood samples were collected from the tail after treatment and blood glucose concentrations were determined at 0, 0.5, 1, and 2 hours by utilizing glucose oxidase method. FIG. 1 and FIG. 2 show the effect of different dosage of Example Formula 1 or Example Formula 2 on sucrose loading test. After fasting for one day, 7-week-old, male SD rats were gavaged with sucrose solution (2.0 g/kg) with or without (the Control sample) Example Formula 1 or Example Formula 2. Acarbose was utilized as a positive control. Each point in the drawing represents mean±SD. (n=5). *p<0.05, **p<0.01 versus their corresponding controls at the same time points by unpaired Student's t-test. After fasting for one day, 7-week-old, male SD rats were gavaged with sucrose solution (2.0 g/kg) with or without the Comparative Example Formula 1. Acarbose was used as a positive control. Each point represents mean±SD. (n=5). *p<0.05, **p<0.01 versus their corresponding controls at the same time points by unpaired Student's t-test. Table 4 below lists the blood glucose level of rats under different dosage of Example Formula 1 and Comparative Example Formula 1 on sucrose loading test (unit: mM). The procedure is as described above. After fasting for one day, 7-week-old, male SD rats were gavaged with sucrose solution (2.0 g/kg) with or without Example Formula 1 or Comparative Example Formula 1. Acarbose was used as a positive control. Each point represents mean±SD. (n=5). *p<0.05, **p<0.01 versus their corresponding controls at the same time points by unpaired Student's t-test.

Row | Compound | clinically tolerable dose [1] [mg/kg] | blood glucose level ([2]; time 0 hour) [mM] | blood glucose level ([2]; time 0.5 hour) | blood glucose level ([2]; time 1 hour) | blood glucose level ([2]; time 2 hour) [mM]
1 | O=CC[C@@H](O)[C@H](O)[C@H](O)CO [2-deoxy-D-glucose] | 63 | – | – | – | –
2 | C[C@H]1O[C@H](O[C@H]2[C@H](O)[C@@H](O)[C@@H](O[C@H]3[C@H](O)[C@@H](O)C(O)O[C@@H]3CO)O[C@@H]2CO)[C@H](O)[C@@H](O)[C@@H]1N[C@H]1C=C(CO)[C@@H](O)[C@H](O)[C@H]1O (some centres unmarked) [Acarbose] | – | 5.4 ± 0.2 | 6.5 ± 0.3** mM | 6.9 ± 0.4** mM | 6.5 ± 0.4
